The results in this text go back to patent publication US20220009914A1, “Analogs of Nitrofuran Antibiotics to Combat Resistance” (The Trustees of Indiana University, priority 2020, published 2022).

Read-outs that look alike come from different tables or passages of the source.

One test addresses T1, E. coli GroEL/ES (Escherichia coli, UniProt P0A6F5).
T1 construct: made in house; host or cells: GroEL in NEB 5-alpha E. coli; GroES in E. coli BL21 (DE3)
Put plainly: GroEL/ES-mediated dMDH refolding assay in the presence of E. coli NfsB nitroreductase. Type of test: biochemical. On the procedure:
Evaluating compounds for inhibition in the GroEL/ES-mediated dMDH refolding assay and native MDH activity counter-screen in the presence of E. coli NfsB nitroreductase. These assays were performed nearly identically to those mentioned above, but with a couple distinct modifications. For both assays, 10 μg/mL of the E. coli NfsB nitroreductase enzyme (Sigma product #N9284) was added to the initial GroEL/ES-dMDH solution. For the GroEL/ES-dMDH refolding assay, after stamping with compounds, 10 μL of a 2.4 mM NADH solution was added, followed by a 10 minute incubation period at 37° C. to bioactivate the nitrofuran analogs. The remainder of the assay was conducted as in our standard protocol where no NfsB nitroreductase was present. […] For the native MDH activity counter-screen in the presence of E. coli NfsB nitroreductase, the assay was performed as described above for the GroEL/ES-dMDH refolding assay with NfsB; however, compound addition to the assay plates was conducted after the EDTA quench step, followed by a 10 minute incubation period at 37° C. to bioactivate the nitrofuran analogs. […] Results presented represent the averages of IC50 values obtained from at least four replicates in each assay.
Evaluating analogs for inhibiting GroEL/ES-mediated substrate refolding functions in the presence of the E. coli NfsB type-1 nitroreductase. […] However, our standard GroEL/ES-mediated refolding assays and native substrate reporter counter-screens were conducted without nitroreductases present.

Test [1] has as its system Enterobacter cloacae strain CDC 442-68 (ATCC #13047). Put plainly: bacterial proliferation assay, E. cloacae. It counts as cell-based. The conditions noted are these: ATCC13047, read-out: Bacterial Proliferation EC50 E. cloacae. On the procedure: (§1) All compounds were evaluated for inhibiting the proliferation of E. coli and each of the ESKAPE bacteria. Results presented represent the averages of EC50 values obtained from at least four replicates. Evaluating compounds for inhibition of bacterial cell proliferation.
(§2) Growth Media: E. coli were grown with LB medium and all ESKAPE bacteria were grown in Brain Heart Infusion (BHI) medium (Becton, Dickinson and Company), with all liquid cultures supplemented with 25 mg/L Ca^2+ and 12.5 mg/L Mg^2+ to mimic physiological free concentrations of these cations. A 10 mg/mL Ca^2+ stock solution was prepared by dissolving 1.84 g of CaCl2.2H2O in 50 mL of deionized water, and a 10 mg/mL Mg^2+ stock solution was prepared by dissolving 4.18 g of MgCl2.6H2O in 50 mL deionized water—filter sterilized using 0.2 μm cellulose-acetate filters. 2.5 mL of the sterile 10 mg/mL Ca^2+ stock and 1.25 mL of the sterile 10 mg/mL Mg^2+ stock solutions were added per 1 L of autoclaved LB or BHI media to obtain 25 mg/L Ca^2+ and 12.5 mg/L Mg^2+ ions, respectively.
(§3) General Assay Protocol: Stock bacterial cultures were streaked onto LB or BHI agar plates and grown overnight at 37° C. Fresh aliquots of cation supplemented media were inoculated with single bacterial colonies and the cultures were grown overnight at 37° C. with shaking (240 rpm). The following morning, cultures were diluted 10-fold into fresh media and grown at 37° C. until bacteria had reached mid-log phase growth (OD600˜0.4-0.6). The cultures were then diluted into fresh media to achieve final OD600 readings of 0.017. Aliquots of these diluted cultures (30 μL) were added to clear, flat-bottom 384-well polystyrene plates that were previously stamped with 0.5 μL of test compounds in 20 μL of media (yielding initial OD600=0.01 bacterial cultures). All compounds were tested in dose-response with concentration ranges during the proliferation assays from 100 μM to 46 nM (3-fold dilution series). A second set of baseline control plates were prepared analogously, but without any bacteria added, to correct for possible compound absorbance and/or precipitation. […] Plates were then read at 600 nm using a Molecular Devices SpectraMax Plus384 microplate reader. […] Results presented represent the averages of EC50 values obtained from at least four replicates.
(§4) Evaluating analogs for inhibiting the growth of E. coli and the ESKAPE bacteria. Analogs were initially tested for antibacterial efficacy against representative strains of antibiotic-sensitive E. coli and the ESKAPE bacteria. To determine compound efficacy, bacterial proliferation assays were carried out in liquid media culture supplemented with physiological concentrations of free calcium and magnesium cations. For these assays, bacterial cultures (OD600=0.01) were exposed to test compounds in 8-point, 3-fold dilution series (100 μM to 46 nM concentration range), in 384-well plates. After addition of compounds to cultures, the plates were sealed with Breathe-Easy gas permeable membranes and allowed to grow to mid-log phase (OD600˜0.4-0.6), whereupon final OD600 readings were taken to assess for bacterial growth and inhibition.

Test [2] has as its system Klebsiella pneumoniae strain NCTC 9633 (ATCC #13883). Put plainly: bacterial proliferation assay, K. pneumoniae. It counts as cell-based. The conditions noted are these: for EC50: Klebsiella pneumoniae, read-out: Bacterial Proliferation EC50 K. pneumoniae. On the procedure: as §1, §2, §3, §4
The subject of test [3] is NEB 5-alpha Escherichia coli. Put plainly: bacterial proliferation assay, E. coli. The following applies: for EC50: read-out: Bacterial Proliferation EC50 E. coli. Type of test: cell-based. Here is the method: as §1, §2, §3, §4

T1 sequence (P0A6F5 2-548): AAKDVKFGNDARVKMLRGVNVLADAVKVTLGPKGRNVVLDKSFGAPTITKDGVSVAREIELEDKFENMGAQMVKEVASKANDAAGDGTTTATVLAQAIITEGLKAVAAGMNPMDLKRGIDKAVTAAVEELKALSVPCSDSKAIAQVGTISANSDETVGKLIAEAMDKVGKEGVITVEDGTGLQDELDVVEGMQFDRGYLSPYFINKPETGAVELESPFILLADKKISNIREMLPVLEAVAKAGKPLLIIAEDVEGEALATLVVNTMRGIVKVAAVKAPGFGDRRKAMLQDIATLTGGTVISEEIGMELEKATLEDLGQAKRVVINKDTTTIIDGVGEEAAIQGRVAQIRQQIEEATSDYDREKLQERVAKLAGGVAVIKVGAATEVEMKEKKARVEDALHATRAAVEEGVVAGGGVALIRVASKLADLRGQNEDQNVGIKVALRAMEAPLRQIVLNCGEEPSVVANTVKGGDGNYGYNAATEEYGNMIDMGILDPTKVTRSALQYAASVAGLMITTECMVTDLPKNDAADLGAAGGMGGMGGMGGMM

On to `CCN(CC)S(=O)(=O)c1cccc(C(=O)N/N=C/c2ccc(O)c3ncccc23)c1` [Compound 12, N,N-diethyl-3-(2-((8-hydroxyquinolin-5-yl)methylene)hydrazine-1-carbonyl)benzenesulfonamide], for which the IC50 at E. coli GroEL/ES turned out to be 21 µM. For the same molecule, the values for the EC50 in test [1], in test [2] and in test [3] (Escherichia coli) were greater than 100 µM, greater than 100 µM and 99 µM, respectively.
`CCN(CC)S(=O)(=O)c1cccc(C(=O)N/N=C/c2ccc([N+](=O)[O-])o2)c1` [Compound 25, N,N-diethyl-3-(2-((5-nitrofuran-2-yl)methylene)hydrazine-1-carbonyl)benzenesulfonamide]: the IC50 at E. coli GroEL/ES was 6 µM. Also, the EC50 in test [1], in test [2] and in test [3] (Escherichia coli) was greater than 100 µM each time.
As for `COc1ccc(C(=O)N/N=C/c2ccc(O)c3ccccc23)cc1` [Compound 29, N′-((4-hydroxynaphthalen-1-yl)methylene)-4-methoxybenzohydrazide], the IC50 at E. coli GroEL/ES is greater than 83 µM. Moreover, the EC50 in test [1], in test [2] and in test [3] (Escherichia coli) was greater than 100 µM throughout.
With `O=C(N/N=C/c1ccc(O)c2ncccc12)c1ccc(Cl)s1` [Compound 4, 5-chloro-N′-((8-hydroxyquinolin-5-yl)methylene)thiophene-2-carbohydrazide], the IC50 on E. coli GroEL/ES is 4 µM. For the same molecule, the EC50 in test [1], in test [2] and in test [3] (Escherichia coli) was greater than 100 µM each time.
Take `O=C(N/N=C/c1cccc2ncccc12)c1ccccc1` [Compound 32, N′-(quinolin-5-ylmethylene)benzohydrazide]: the IC50 at E. coli GroEL/ES is greater than 83 µM. For the same molecule, the EC50 in test [1], in test [2] and in test [3] (Escherichia coli) was greater than 100 µM each time.
Regarding `O=C(N/N=C/c1ccc([N+](=O)[O-])o1)c1ccc(NS(=O)(=O)c2cccs2)cc1` [Compound 26, N-(4-(2-((5-nitrofuran-2-yl)methylene)hydrazine-1-carbonyl)phenyl)thiophene-2-sulfonamide], the IC50 at E. coli GroEL/ES is 6 µM. For the same molecule, the values for the EC50 in test [1], in test [2] and in test [3] (Escherichia coli) were greater than 100 µM, greater than 100 µM and 17 µM, respectively.
In the case of `O=C(N/N=C/c1ccc(O)c2ccccc12)c1ccccc1` [Compound 30, N′-((4-hydroxynaphthalen-1-yl)methylene)benzohydrazide], the IC50 at E. coli GroEL/ES was greater than 83 µM. Further, the EC50 in test [1], in test [2] and in test [3] (Escherichia coli) was greater than 100 µM each time.
Take `O=C(N/N=C/c1ccc(O)c2ncccc12)c1ccc(NS(=O)(=O)c2cccs2)cc1` [Compound 13, N-(4-(2-((8-hydroxyquinolin-5-yl)methylene)hydrazine-1-carbonyl)phenyl)thiophene-2-sulfonamide]: the IC50 at E. coli GroEL/ES was found to be 1.9 µM. Besides, the EC50 in test [1], in test [2] and in test [3] (Escherichia coli) was greater than 100 µM throughout.
Take `O=C(N/N=C/c1cccc2ccccc12)c1ccccc1` [Compound 34, N′-(naphthalen-1-ylmethylene)benzohydrazide]: on E. coli GroEL/ES, the IC50 is greater than 83 µM. The EC50 in test [1], in test [2] and in test [3] (Escherichia coli) was greater than 100 µM in each case.
For the molecule `CCOc1ccc(S(=O)(=O)Nc2ccc(C(=O)N/N=C/c3ccc(O)c4ncccc34)cc2)cc1` [Compound 15, 4-ethoxy-N-(4-(2-((8-hydroxyquinolin-5-yl)methylene)hydrazine-1-carbonyl)phenyl)benzenesulfonamide], at E. coli GroEL/ES, the IC50 amounted to 3.1 µM. Further, the EC50 in test [1], in test [2] and in test [3] (Escherichia coli) was greater than 100 µM in each case.
Regarding `COc1ccc(C(=O)N/N=C/c2ccc(O)cc2)cc1` [Compound 35, N′-(4-hydroxybenzylidene)-4-methoxybenzohydrazide], the IC50 at E. coli GroEL/ES is greater than 83 µM. Also, the EC50 in test [1], in test [2] and in test [3] (Escherichia coli) was greater than 100 µM in each case.
As to `O=C(N/N=C/c1ccc(O)c2ncccc12)c1cccs1` [Compound 3, N′-((8-hydroxyquinolin-5-yl)methylene)thiophene-2-carbohydrazide], at E. coli GroEL/ES, the IC50 turned out to be 29 µM. Also, the EC50 came out at 92 µM in test [1], 99 µM in test [2] and 77 µM in test [3] (Escherichia coli).
The like results for `O=C(N/N=C/c1ccc(O)c2ncccc12)c1ccncc1` [Compound 6, N′-((8-hydroxyquinolin-5-yl)methylene)isonicotinohydrazide] were, in that order, greater than 83 µM, greater than 100 µM, greater than 100 µM and 79 µM.
The like results for `O=Cc1ccc(O)c2ncccc12` [Compound 40, reference compound] were, in that order, greater than 83 µM, 24 µM, 15 µM and 14 µM.
On the same counts, the results for `CCOc1ccc(S(=O)(=O)Nc2ccc(C(=O)N/N=C/c3ccc([N+](=O)[O-])o3)cc2)cc1` [Compound 28, 4-ethoxy-N-(4-(2-((5-nitrofuran-2-yl)methylene)hydrazine-1-carbonyl)phenyl)benzenesulfonamide] are 39 µM, greater than 100 µM, greater than 100 µM and greater than 100 µM.
As to `COc1ccc(C(=O)N/N=C/c2ccco2)cc1` [Compound 39, N′-(furan-2-ylmethylene)-4-methoxybenzohydrazide], the IC50 at E. coli GroEL/ES is greater than 83 µM. The EC50 in test [1], in test [2] and in test [3] (Escherichia coli) was greater than 100 µM throughout.
With `O=C(N/N=C/c1ccc(O)c2ncccc12)c1ccc(NS(=O)(=O)c2ccc(Br)cc2)cc1` [Compound 14, 4-bromo-N-(4-(2-((8-hydroxyquinolin-5-yl)methylene)hydrazine-1-carbonyl)phenyl)benzenesulfonamide], the IC50 at E. coli GroEL/ES was 3.6 µM. Also, the EC50 was greater than 100 µM in test [1], greater than 100 µM in test [2], no less than 100 µM in test [3] (Escherichia coli) and greater than 100 µM in test [3].
On to `O=C(N/N=C/c1ccc([N+](=O)[O-])o1)c1ccc(Cl)s1` [Compound 17, 5-chloro-N′-((5-nitrofuran-2-yl)methylene)thiophene-2-carbohydrazide], for which, on E. coli GroEL/ES (in the presence of E. coli NfsB), the “GroEL/ES inhibition in words” value was “most potent at inhibiting GroEL/ES in the presence of NfsB”. Also, the IC50 at E. coli GroEL/ES (with E. coli NfsB nitroreductase, read-out: NfsB-GroEL/ES-dMDH Refolding IC50) was found to be 3.2 µM. For the same molecule, the EC50 in test [1] was determined as 49 µM. Also, in test [2], the “inhibition of K. pneumoniae in words” value is reported as “moderate inhibitors” and the EC50 stood at 19 µM. For the same molecule, in test [3], the “inhibition of E. coli proliferation in words” value is reported as “potent inhibitors” and the EC50 came to 0.45 µM.
For `O=C(N/N=C/c1ccccc1)c1ccccc1` [Compound 38, N′-benzylidenebenzohydrazide], the IC50 on E. coli GroEL/ES is greater than 83 µM. Moreover, the EC50 in test [1], in test [2] and in test [3] (Escherichia coli) was greater than 100 µM throughout.
